These results are taken from patent publication US20260285877A1, “Macrocyclic EGFR Inhibitor, and Preparation Method Therefor and Pharmaceutical Use Thereof” (Abbisko Therapeutics Co., Ltd., priority 2022, published 2026).

Structures are written as SMILES.

For series [1] the following is noted: phase III FLAURA, compared with first-generation EGFR TKIs; cited from earlier work.
Series [2] is described as follows: Pharmacokinetic experiment in mice. The format is in vivo. As to conditions: mouse, plasma; ICR mice, PO 10 mg/kg (IV 2 mg/kg); read-out: Oral F. The source says: The purpose of this trial is to study the pharmacokinetic behavior of some compounds of the present invention, and the administration method is: Single oral administration (PO) to ICR mice. The compounds used in this trial are from the compounds in the specific examples of the present invention and the listed positive compounds. ICR mice male N=9 original source: Shanghai Sippr-Bk Lab Animal Co., Ltd. The compounds are weighed and dissolved in the corresponding solution (10% PG+10% Solutol®+80% pH3 citrate buffer). The mixture is then shaken well and sonicated to prepare a 1 mg/mL stock solution. Nine mice are orally administered at a dose of 10 mg/kg (or IV 2 mg/kg) after an overnight fast. About 90 μL of blood is collected via the submandibular vein per time point, heparin sodium anticoagulant is added, the sample is placed on ice after collection, and plasma is centrifuged within 1 hour (centrifugation conditions: 8,000 rpm, 6 minutes, 2-8° C.). The blood collection timepoints are 0, 0.25, 0.5, 1, 2, 4, 6, 8 and 24 h. The samples are stored in a −20° C. refrigerator. The plasma sample is 40 μL, 160 μL of ice-cold acetonitrile containing internal standard is added, vortexed for 3 minutes, and centrifuged at 11,000 rpm for 5 minutes. 100 μL of the supernatant is taken and added to 100 μL of water, 5 μL of the sample is taken and injected into LC/MS/MS for analysis.

The test system of the next series is A431 WT. Briefly: Cell proliferation assay (CellTiter-Glo), A431 WT. As to conditions: Homo sapiens, A-431; A431 WT cells, 72 hour incubation, CTG. Type of series: cell-based. The procedure:
(§1) • (1) Harvest cells in a logarithmic growth phase and count the cells using a platelet counter.
(§2) • (1) Add 10 μL PBS to each well of the TO plate containing cells. • (2) Thaw the CTG reagent and equilibrate the plate to room temperature for 30 minutes. • (3) Add an equal volume of CTG solution to each well. • (4) Lyse cells by shaking on an orbital shaker for 5 minutes. • (5) Leave the plate at room temperature for 20 minutes to stabilize the luminescence signal. • (6) Read the TO fluorescence signal.
(§3) Then add 10 μL of the drug solution concentration to individual wells of the 96-well plate seeded with cells.
(§4) • (1) Thaw the CTG reagent and equilibrate the plate to room temperature for 30 minutes. • (2) Add an equal volume of CTG solution to each well. • (3) Lyse cells by shaking on an orbital shaker for 5 minutes. • (4) Leave the plate at room temperature for 20 minutes to stabilize the fluorescence signal. • (5) Read fluorescence value.
(§5) Analyze the data by using GraphPad Prism 7.0 software, and use Non-linear S-curve regression to fit the dose-response curves, to calculate the IC50 values (in nM).

Series [3] deals with Ba/F3 EGFR-L858R-T790M-C797S (LTC). Briefly: Cell proliferation assay (CellTiter-Glo), Ba/F3 EGFR-L858R-T790M-C797S. As to conditions: Mus musculus, BaF3; Ba/F3 EGFR-L858R-T790M-C797S cells, 72 hour incubation, CTG. Type of series: cell-based. How it is done: as §1, §2, §3, §4, §5
Series [4] concerns Ba/F3 EGFR-L858R-C797S (LC). Briefly: Cell proliferation assay (CellTiter-Glo), Ba/F3 EGFR-L858R-C797S. Type of series: cell-based. To be noted: Mus musculus, BaF3; Ba/F3 EGFR-L858R-C797S cells, 72 hour incubation, CTG. The procedure:
as §1, §2, §3, §4, §5

Regarding `C=CC(=O)Nc1cc(Nc2nccc(-c3cn(C)c4ccccc34)n2)c(OC)cc1N(C)CCN(C)C` [Osimertinib], in series [1], the overall survival was 38.6 months and the progression-free survival is 18.9 months.
As to `CCS(=O)(=O)C[C@H]1CCN(c2nn3c4cc(ncc24)Nc2ccnc(n2)-c2cnn(C)c2OCC2(CCCC2)C3)C1` [Example 35, (S)-3′-(3-((ethylsulfonyl)meth-yl)pyrrolidin-1-yl)-1′-meth-ylspiro(cyclopentane-1,6′-8-oxa-3-aza-4(6,1)-pyrazolo [4,3-c]pyridina-2(2,4)-pyri-midina-1(4,5)-pyrazolacyclo-octaphane)], the bioavailability in series [2] came to 81.5%.
`CC(=O)N[C@@H]1CCN(c2nn3c4cc(ncc24)Nc2ccnc(n2)-c2cnn(C)c2OCC2(CCCC2)C3)C1` [Example 49]: the figures for the IC50 (in the series with A431 WT; in series [3]; in series [4]) were 926 nM, 29.6 nM and 59.9 nM, respectively.
